According to patent publication US11406629B2, “Solid forms comprising 4-amino-2-(2,6-dioxopiperidine-3-yl)isoindoline-1,3-dione and a coformer, compositions and methods of use thereof” (Celgene Corporation, priority 2013, dated 2022):
Values after ≈ are worked out from the molar mass of the structure shown. Read-outs that look alike come from different tables or passages of the source.

Assays:
[1] = Solubility of pomalidomide in various solvents at ambient temperature (visual inspection, solvent aliquot addition); format: physicochemical
Procedure: Solubility was estimated by treating a weighed sample of pomalidomide with measured aliquots of the test solvent at ambient temperature, with shaking and/or sonication between aliquots. Dissolution was determined by visual inspection. Solubility numbers were calculated by […]. The actual solubilities may be greater than the numbers calculated because of the use of solvent aliquots that were too large or because of slow dissolution rates. […] The solubility number is expressed as “greater than” if dissolution occurred on addition of the first solvent aliquot.

[2] = Slurry of Form B of pomalidomide in EtOH, 0.1 N HCl, or water (solid form conversion); format: physicochemical; conditions: slurring in EtOH, 0.1 N HCl, or water for 3 days
Source text: In one embodiment, without being limited by particular theory, Form B is a metastable form of pomalidomide.

Structure (SMILES): Nc1cccc2c1C(=O)N(C1CCC(=O)NC1=O)C2=O (stereo not drawn) [Pomalidomide, 4-amino-2-(2,6-dioxopiperidine-3-yl)isoindoline-1,3-dione]
- solubility ([1]; Acetone): 900 µg/mL (≈ 3.29 mM)
- solubility ([1]; DMF:acetone (1:2)): 6000 µg/mL (≈ 22 mM)
- solubility ([1]; Hexafluoroisopropanol): 2300 µg/mL (≈ 8.42 mM)
- solubility ([1]; THF:water (95:5)): 3500 µg/mL (≈ 12.8 mM)
- solubility ([1]; organic solvent or mixture, thermodynamic from solid, 2,2,2-trifluoroethanol, read-out: Solubility): < 1000 µg/mL
- solubility ([1]; organic solvent or mixture, thermodynamic from solid, 2-methyltetrahydrofuran, read-out: Solubility): < 1000 µg/mL
- solubility ([1]; organic solvent or mixture, thermodynamic from solid, Acetonitrile, read-out: Solubility): < 1000 µg/mL
- solubility ([1]; organic solvent or mixture, thermodynamic from solid, DMF, read-out: Solubility): > 5000 µg/mL
- solubility ([1]; organic solvent or mixture, thermodynamic from solid, DMF:methanol (1:1), read-out: Solubility): 4200 µg/mL (≈ 15.4 mM)
- solubility ([1]; organic solvent or mixture, thermodynamic from solid, DMF:methanol (1:2), read-out: Solubility): 2400 µg/mL (≈ 8.78 mM)
- solubility ([1]; organic solvent or mixture, thermodynamic from solid, Dichloromethane, read-out: Solubility): < 1000 µg/mL
- solubility ([1]; organic solvent or mixture, thermodynamic from solid, Methanol, read-out: Solubility): < 1000 µg/mL
- solubility ([1]; organic solvent or mixture, thermodynamic from solid, acetone:water (95:5), read-out: Solubility): < 1000 µg/mL
- solubility ([1]; tetrahydrofuran (THF)): 1100 µg/mL (≈ 4.03 mM)

Structure (SMILES): Nc1cccc2c1C(=O)N(C1CCC(=O)NC1=O)C2=O (stereo not drawn) [Form B of pomalidomide, 4-amino-2-(2,6-dioxopiperidine-3-yl)isoindoline-1,3-dione]
- Solid form stability on slurrying [2]: converts to Form A of pomalidomide
